Data published in patent US20250134874A1, “PHARMACEUTICAL FORMULATIONS COMPRISING 3-({[(4R)-7-{METHYL[4-(PROPAN-2-YL)PHENYL]AMINO}-3,4-DIHYDRO-2H-1-BENZOPYRAN-4-YL]METHYL}AMINO)PYRIDINE-4-CARBOXYLIC ACID” (TACHYON THERAPEUTICS, INC., priority 2021, published 2025).

Tested on: 301 cancer cell lines from different tumor types (OncoPanel; HD Biosciences)
Test: 2D cell viability inhibition assay (CellTiter-Glo) in cancer cell line panel
Format: cell-based
Conditions: Homo sapiens
Description: In a larger screening study, compound 1 was evaluated across a broad cancer cell line panel (OncoPanel; HD Biosciences) composed of 301 cancer cell lines from different tumor types.
2D cell viability inhibition assays were performed in multiwell plates seeded with cells from the panel. After seeding, the plates were cultured overnight in a humidified incubator at 37° C. to promote adherence. Assays were initiated in individual wells by adding either DMSO as a vehicle control, growth media as a blank, or serially diluted compound 1 (10 μM to 0.0005 μM with 1:3 serial dilution). Cultures were incubated for 168 hours after which the number of viable cells in each test well was assessed using the CellTiter-Glo® Luminescent Cell Viability Assay. Luminescence readouts were performed using an EnVision® Multilabel Reader and the compound 1 readouts were normalized to the DMSO control readouts, expressed as a percent of the control. Outliers were flagged out by visual inspection. Percent of control was plotted against the corresponding compound 1 concentration and the absolute IC50 value was determined using four-parameter logistic non-linear regression as the concentration where inhibition was 50% of the control. For maximum inhibition <50%, the absolute IC50 was reported as >10. In addition to EC50 and IC50, AUC was determined and was normalized to the area corresponding to theoretical no-inhibition (the rectangular area defined by the compound dose range and 0 to 100 in y). Emax was recorded as the minimum in y with the compound dose range. For those cell lines where Emax>40, EC50 was manually set to 10 μM. A hierarchical clustering algorithm based on Euclidean distance between the standardized input values and “Ward.D” method as implemented in R hclust function was used to visualize the compound 1 cellular potency data. The sensitive/moderate/resistant calls for each cell line was determined by visually inspecting the resulting clustering dendrogram. All the analyses were done in R Core Team.

[1] = Detroit 562, DETROIT562 cell line
[2] = Granta-519, GRANTA519 cell line
[3] = KARPAS-422, KARPAS422 cell line

CC(C)c1ccc(N(C)c2ccc3c(c2)OCC[C@H]3CNc2cnccc2C(=O)O)cc1 [Compound 1, 3-({[(4R)-7-{methyl[4-(propan-2-yl)phenyl]amino}-3,4-dihydro-2H-1-benzopyran-4-yl]methyl}amino)pyridine-4-carboxylic acid]
IC50 (Calu-6, CALU6 cell line): 14.9 nM | EC50 (Caov-3, CAOV3 cell line): 5.25 nM | IC50 (Caov-3, CAOV3 cell line): 6.47 nM | IC50 (Capan-2, 168 h, CAPAN2, pancreas, ductal carcinoma, 168 hours): > 10000 nM | EC50 (DLD-1, DLD1 cell line): 1.47 nM | IC50 (DLD-1, DLD1 cell line): 2.53 nM | IC50 (DMS-53, 168 h, DMS53, lung, small cell carcinoma, 168 hours): > 10000 nM | EC50 (DMS-79, DMS79 cell line): 1.28 nM | IC50 (DMS-79, DMS79 cell line): 3.47 nM | IC50 (DMS-153, DMS153 cell line): > 10000 nM | EC50 (DMS-273, DMS273 cell line): 16.3 nM | IC50 (DMS-273, DMS273 cell line): 22.2 nM | EC50 (DU-145, DU145 cell line): 16.6 nM | IC50 (DU-145, DU145 cell line): 17.7 nM | EC50 (DV-90, DV90 cell line): 5.36 nM | IC50 (DV-90, DV90 cell line): 7.36 nM | IC50 (Daoy, 168 h, central nervous system, NS): > 10000 nM | EC50 (Daudi, DAUDI cell line): 13.4 nM | IC50 (Daudi, DAUDI cell line): 14.9 nM | EC50 [1]: 10.4 nM | IC50 [1]: 16.7 nM | EC50 (FTC-133, FTC133 cell line): 4.28 nM | IC50 (FTC-133, FTC133 cell line): 7.49 nM | IC50 (G-361, 168 h, G361, skin, NS, 168 hours): > 10000 nM | EC50 (G-401, G401 cell line): 4.39 nM | IC50 (G-401, G401 cell line): 4.45 nM | EC50 (GI-1, GI1 cell line): 295 nM | IC50 (GI-1, GI1 cell line): 287 nM | EC50 [2]: 14.9 nM | IC50 [2]: 17.6 nM | IC50 (HCC38, 168 h, HCC38, breast, ductal carcinoma, 168 hours): > 10000 nM | EC50 (HCC70, HCC70 cell line): 8.56 nM | IC50 (HCC70, HCC70 cell line): 11 nM | EC50 (HCC78, HCC78 cell line): 12.7 nM | IC50 (HCC78, HCC78 cell line): 23.9 nM | EC50 (HCC95, HCC95 cell line): 3.34 nM | IC50 (HCC95, HCC95 cell line): 4.4 nM | IC50 (HCC827, 168 h, HCC827, lung, adenocarcinoma, 168 hours): > 10000 nM | IC50 (HCC1143, HCC1143 cell line): > 10000 nM | EC50 (HCC1187, HCC1187 cell line): 3.1 nM | IC50 (HCC1187, HCC1187 cell line): 6.51 nM | IC50 (HCC1419, 168 h, HCC1419, breast, ductal carcinoma, 168 hours): > 10000 nM | IC50 (HCC1428, 168 h, HCC1428, breast, NS, 168 hours): > 10000 nM | EC50 (HCC1599, HCC1599 cell line): 3.82 nM | IC50 (HCC1599, HCC1599 cell line): 5.64 nM | EC50 (HCC1806, HCC1806 cell line): 5.13 nM | IC50 (HCC1806, HCC1806 cell line): 13 nM | IC50 (HCC1937, 168 h, HCC1937, breast, ductal carcinoma, 168 hours): > 10000 nM | IC50 (HCC1954, HCC1954 cell line): 40.6 nM | IC50 (HCC2935, HCC2935 cell line): > 10000 nM | EC50 (HCT-15, HCT15 cell line): 1.47 nM | IC50 (HCT-15, HCT15 cell line): 1.79 nM | EC50 (HCT-116, HCT116 cell line): 4.99 nM | IC50 (HCT-116, HCT116 cell line): 20.4 nM | EC50 (HEL, HEL cell line): 3.6 nM | IC50 (HEL, HEL cell line): 11.7 nM | EC50 (HL-60, HL60 cell line): 8.12 nM | IC50 (HL-60, HL60 cell line): 9.32 nM | EC50 (HLE, HLE cell line): 10.4 nM | IC50 (HLE, HLE cell line): 11.3 nM | EC50 (HMCB, HMCB cell line): 0.815 nM | IC50 (HMCB, HMCB cell line): 11.1 nM | EC50 (HPAC, HPAC cell line): 2.38 nM | IC50 (HPAC, HPAC cell line): 3.93 nM | EC50 (HSC-2, HSC2 cell line): 5.09 nM | IC50 (HSC-2, HSC2 cell line): 7.99 nM | IC50 (HSC-3, HSC3 cell line): 60.3 nM | EC50 (HSC-4, HSC4 cell line): 4.33 nM | IC50 (HSC-4, HSC4 cell line): 6.95 nM | EC50 (HT55, HT55 cell line): 12.7 nM | IC50 (HT55, HT55 cell line): 14.2 nM | EC50 (HT-29, HT29 cell line): 22.8 nM | IC50 (HT-29, HT29 cell line): 37 nM | IC50 (HT-144, 168 h, HT144, skin, NS, 168 hours): > 10000 nM | EC50 (HT-1080, HT1080 cell line): 12.8 nM | IC50 (HT-1080, HT1080 cell line): 14.1 nM | EC50 (HT-1376, HT1376 cell line): 17.9 nM | IC50 (HT-1376, HT1376 cell line): 36.3 nM | EC50 (HepG2, HEPG2 cell line): ≥ 10000 nM | IC50 (HepG2, HEPG2 cell line): 52.1 nM | EC50 (Hs 294T, HS294T cell line): 30.7 nM | IC50 (Hs 294T, HS294T cell line): 66.8 nM | IC50 (Hs 695T, 168 h, HS695T, skin, NS): > 10000 nM | EC50 (Hs-578T, HS578T cell line): 6.9 nM | IC50 (Hs-578T, HS578T cell line): 13.9 nM | EC50 (HuH-1, HUH1 cell line): 10.6 nM | IC50 (HuH-1, HUH1 cell line): 11.8 nM | EC50 (HuTu80, HUTU80 cell line): 4.21 nM | IC50 (HuTu80, HUTU80 cell line): 4.36 nM | EC50 (Huh-7, HUH7 cell line): 12.9 nM | IC50 (Huh-7, HUH7 cell line): 14 nM | IC50 (J82, J82 cell line): > 10000 nM | EC50 (JIMT-1, JIMT1 cell line): 46.6 nM | IC50 (JIMT-1, JIMT1 cell line): 61.9 nM | EC50 (JeKo-1, JEKO1 cell line): 2.31 nM | IC50 (JeKo-1, JEKO1 cell line): 1.8 nM | EC50 (Jurkat, JURKAT cell line): 1.66 nM | IC50 (Jurkat, JURKAT cell line): 1.49 nM | EC50 (K562, K562 cell line): 4.08 nM | IC50 (K562, K562 cell line): 4.56 nM | IC50 (KALS-1, KALS1 cell line): > 10000 nM | EC50 [3]: 5.42 nM | IC50 [3]: 6.53 nM | EC50 (KATO III, KATOIII cell line): 40.4 nM | IC50 (KATO III, KATOIII cell line): 43.8 nM | EC50 (KM12, KM12 cell line): 6.3 nM | IC50 (KM12, KM12 cell line): 7.34 nM | EC50 (KMS-11, KMS11 cell line): 10.9 nM | IC50 (KMS-11, KMS11 cell line): 12.2 nM | EC50 (KNS-62, KNS62 cell line): 12.4 nM | IC50 (KNS-62, KNS62 cell line): 14.9 nM | EC50 (KU-19-19, KU1919 cell line): 8.77 nM | IC50 (KU-19-19, KU1919 cell line): 10.3 nM
